This experiment addresses full-length CBP (Homo sapiens, UniProt Q92793). The experiment is described as follows: cellular thermal shift assay. Type of experiment: biochemical. Particulars: 25 μM garcinolic acid, MV4-11 nuclear extract.

Chain of full-length CBP (Q92793 2-2442): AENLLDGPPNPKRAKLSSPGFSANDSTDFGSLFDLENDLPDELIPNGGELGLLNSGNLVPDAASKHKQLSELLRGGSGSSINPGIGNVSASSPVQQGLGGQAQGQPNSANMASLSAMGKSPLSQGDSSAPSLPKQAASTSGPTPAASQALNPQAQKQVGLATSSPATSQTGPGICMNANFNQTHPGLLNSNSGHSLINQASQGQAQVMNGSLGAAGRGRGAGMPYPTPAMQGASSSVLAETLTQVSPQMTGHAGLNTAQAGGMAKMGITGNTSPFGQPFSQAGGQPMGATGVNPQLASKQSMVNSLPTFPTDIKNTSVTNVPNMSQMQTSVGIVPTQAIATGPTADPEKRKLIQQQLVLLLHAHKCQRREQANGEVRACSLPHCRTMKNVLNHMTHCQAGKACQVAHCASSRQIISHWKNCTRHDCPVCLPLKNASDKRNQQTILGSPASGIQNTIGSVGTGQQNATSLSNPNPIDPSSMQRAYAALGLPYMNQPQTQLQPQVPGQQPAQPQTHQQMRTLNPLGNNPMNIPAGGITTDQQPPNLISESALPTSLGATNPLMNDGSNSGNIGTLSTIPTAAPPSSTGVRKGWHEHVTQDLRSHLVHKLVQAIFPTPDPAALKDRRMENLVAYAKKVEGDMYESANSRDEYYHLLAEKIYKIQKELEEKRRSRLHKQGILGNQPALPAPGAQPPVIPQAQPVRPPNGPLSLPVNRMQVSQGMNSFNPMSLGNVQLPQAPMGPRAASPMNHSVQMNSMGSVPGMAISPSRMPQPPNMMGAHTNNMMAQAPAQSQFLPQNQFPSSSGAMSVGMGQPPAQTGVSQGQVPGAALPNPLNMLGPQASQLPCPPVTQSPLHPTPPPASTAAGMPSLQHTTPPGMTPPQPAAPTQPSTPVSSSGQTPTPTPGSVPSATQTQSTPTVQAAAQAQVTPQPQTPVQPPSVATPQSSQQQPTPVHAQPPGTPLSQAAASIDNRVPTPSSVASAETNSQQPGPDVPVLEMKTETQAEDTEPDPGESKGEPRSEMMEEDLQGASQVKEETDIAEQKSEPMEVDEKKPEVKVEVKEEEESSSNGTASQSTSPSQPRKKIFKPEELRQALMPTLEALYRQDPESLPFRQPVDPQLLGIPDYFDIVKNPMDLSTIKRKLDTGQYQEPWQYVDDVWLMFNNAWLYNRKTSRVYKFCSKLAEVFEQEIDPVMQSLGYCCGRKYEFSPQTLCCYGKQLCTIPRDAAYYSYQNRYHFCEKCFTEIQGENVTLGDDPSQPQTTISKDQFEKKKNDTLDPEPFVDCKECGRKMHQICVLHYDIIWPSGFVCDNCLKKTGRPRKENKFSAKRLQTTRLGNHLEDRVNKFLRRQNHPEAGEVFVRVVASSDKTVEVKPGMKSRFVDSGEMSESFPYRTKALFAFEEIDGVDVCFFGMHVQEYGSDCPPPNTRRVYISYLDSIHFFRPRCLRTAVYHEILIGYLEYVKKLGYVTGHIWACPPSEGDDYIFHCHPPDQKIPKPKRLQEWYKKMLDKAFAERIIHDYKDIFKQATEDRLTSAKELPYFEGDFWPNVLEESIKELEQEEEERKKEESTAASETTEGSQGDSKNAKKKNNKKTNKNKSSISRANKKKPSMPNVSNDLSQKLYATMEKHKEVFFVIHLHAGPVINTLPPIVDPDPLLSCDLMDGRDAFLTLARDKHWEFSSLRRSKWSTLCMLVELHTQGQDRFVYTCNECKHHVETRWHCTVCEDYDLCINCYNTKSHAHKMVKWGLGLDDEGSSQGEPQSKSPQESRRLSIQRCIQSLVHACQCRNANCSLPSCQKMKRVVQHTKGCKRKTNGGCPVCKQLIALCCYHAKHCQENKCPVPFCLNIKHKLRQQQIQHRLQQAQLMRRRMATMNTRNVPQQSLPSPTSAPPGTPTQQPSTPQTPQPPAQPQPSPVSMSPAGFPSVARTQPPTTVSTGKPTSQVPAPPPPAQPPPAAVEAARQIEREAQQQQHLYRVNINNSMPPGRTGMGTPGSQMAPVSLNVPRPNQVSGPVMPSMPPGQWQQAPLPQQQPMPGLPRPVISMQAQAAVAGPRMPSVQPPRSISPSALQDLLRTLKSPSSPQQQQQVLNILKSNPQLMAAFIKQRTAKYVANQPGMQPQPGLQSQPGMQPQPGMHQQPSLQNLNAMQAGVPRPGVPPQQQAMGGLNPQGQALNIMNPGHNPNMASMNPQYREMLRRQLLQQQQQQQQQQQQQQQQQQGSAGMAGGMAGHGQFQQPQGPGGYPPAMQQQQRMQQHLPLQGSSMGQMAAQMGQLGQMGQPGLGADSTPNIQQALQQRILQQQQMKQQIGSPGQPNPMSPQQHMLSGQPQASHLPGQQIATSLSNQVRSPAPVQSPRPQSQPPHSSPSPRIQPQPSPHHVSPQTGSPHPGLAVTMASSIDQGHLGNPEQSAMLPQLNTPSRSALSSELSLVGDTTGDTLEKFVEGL

On to `CC(C)=CCCC1(C)C=Cc2c(O)c3c(c(CC=C(C)C)c2O1)OC12C(=CCCC1C(C)(C)O[C@@]2(C/C=C(\C)C(=O)O)C(=O)O)C3=O` (stereo partly shown) [garcinolic acid], for which the “cellular thermal shift assay (Western blot)” value is given as “intact CBP is still observed in the garcinolic acid treated samples”.

The values above are taken from PMC10870240 (Chembiochem : a European journal of chemical biology, 2023).
